From article PMC6001238, “Iterative Chemical Engineering of Vancomycin Leads to Novel Vancomycin Analogs With a High in Vitro Therapeutic Index” (Frontiers in Microbiology, 2018)
≈ marks a conversion by molar mass, not a printed value.

What was measured:
S. aureus VRSA = experiment: MIC, broth microdilution, vancomycin-resistant S. aureus (VRSA); type: cell-based, Staphylococcus aureus; settings: for MIC: Staphylococcus aureus VRSA, read-out: MIC; for MIC-fold improvement vs. vancomycin: VRSA, ratio of MIC of vancomycin and MIC of analogue
Method in brief: (§1)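 CLSI broth microdilution; water and uninoculated-broth controls; one arm supplemented with vancomycin, final 10 μM, given with analogue or control antibiotic.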

E. faecalis VRE 37 = experiment: MIC, broth microdilution, vancomycin-resistant E. faecalis VRE 37 (VanA); type: cell-based, Enterococcus faecalis; settings: for MIC: Enterococcus faecalis VRE 37 (vancomycin-resistant), read-out: MIC; for MIC-fold improvement vs. vancomycin: VRE 37, ratio of MIC of vancomycin and MIC of analogue
Method in brief: as §1

[1] = test system: human T-lymphocyte (CEM) cells; experiment: Cytostatic activity, CEM cell proliferation; type: cell-based; settings: mean ± SD of three experiments; highest concentration tested 250 µM; 3 days; read-out: Toxicity (IC50) CEM
Method in brief: (§2)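 Coulter counter cell counts after 37°C culture with compound; IC50 = concentration giving 50% growth inhibition vs negative control. Incubation: L1210 2 d, CEM 3 d, HeLa 4 d. Suspension density before mixing with an equal volume of dilution: 300,000–500,000 cells/mL.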

E. faecalis VRE 29 = experiment: MIC, broth microdilution, vancomycin-resistant E. faecalis VRE 29 (VanA); type: cell-based, Enterococcus faecalis; settings: for MIC: Enterococcus faecalis VRE 29 (vancomycin-resistant), read-out: MIC; for MIC-fold improvement vs. vancomycin: VRE 29, ratio of MIC of vancomycin and MIC of analogue
Method in brief: as §1

[2] = test system: S. aureus VSSA (ATCC 6538); experiment: MIC, broth microdilution, vancomycin-sensitive S. aureus (VSSA/MSSA, ATCC 6538); type: cell-based, Staphylococcus aureus; settings: for MIC: Staphylococcus aureus VSSA, read-out: MIC; for MIC-fold improvement vs. vancomycin: VSSA, ratio of MIC of vancomycin and MIC of analogue
Method in brief: as §1

MRSA KS2 = experiment: MIC, broth microdilution, MRSA KS2; type: cell-based, Staphylococcus aureus; settings: for MIC-fold improvement vs. vancomycin: MRSA KS2, ratio of MIC of vancomycin and MIC of analogue; for MIC: Staphylococcus aureus MRSA KS2, read-out: MIC
Method in brief: as §1

[3] = test system: human cervix carcinoma (HeLa) cells; experiment: Cytostatic activity, HeLa cell proliferation; type: cell-based; settings: mean ± SD of three experiments; highest concentration tested 250 µM; 4 days; read-out: Toxicity (IC50) HeLa
Method in brief: as §2

S. aureus VISA/HIP5827 = experiment: MIC, broth microdilution, vancomycin-intermediate S. aureus VISA HIP5827; type: cell-based, Staphylococcus aureus; settings: for MIC: Staphylococcus aureus VISA/HIP5827, read-out: MIC; for MIC-fold improvement vs. vancomycin: VISA/HIP5827, ratio of MIC of vancomycin and MIC of analogue
Method in brief: as §1

MRSA KS89 = experiment: MIC, broth microdilution, MRSA KS89; type: cell-based, Staphylococcus aureus; settings: for MIC-fold improvement vs. vancomycin: MRSA KS8, ratio of MIC of vancomycin and MIC of analogue; for MIC: Staphylococcus aureus MRSA KS8, read-out: MIC
Method in brief: as §1

MRSA KS6 = experiment: MIC, broth microdilution, MRSA KS6; type: cell-based, Staphylococcus aureus; settings: for MIC-fold improvement vs. vancomycin: MRSA KS6, ratio of MIC of vancomycin and MIC of analogue; for MIC: Staphylococcus aureus MRSA KS6, read-out: MIC
Method in brief: as §1

MRSA KS1 = experiment: MIC, broth microdilution, MRSA KS1; type: cell-based, Staphylococcus aureus; settings: for MIC-fold improvement vs. vancomycin: MRSA KS1, ratio of MIC of vancomycin and MIC of analogue; for MIC: Staphylococcus aureus MRSA KS1, read-out: MIC
Method in brief: as §1

E. faecalis VSE 1 = experiment: MIC, broth microdilution, vancomycin-sensitive E. faecalis (VSE 1); type: cell-based, Enterococcus faecalis; settings: for MIC: Enterococcus faecalis VSE 1 (vancomycin-sensitive), read-out: MIC; for MIC-fold improvement vs. vancomycin: VSE 1, ratio of MIC of vancomycin and MIC of analogue
Method in brief: as §1

[4] = test system: L1210, CEM and HeLa cell lines; experiment: Cytostatic activity, average or summary over L1210, CEM and HeLa; type: cell-based; settings: average of L1210, CEM and HeLa; read-out: Toxicity (IC50) Average
Method in brief: as §2

[5] = test system: Murine leukemia (L1210) cells; experiment: Cytostatic activity, L1210 cell proliferation; type: cell-based; settings: mean ± SD of three experiments; highest concentration tested 250 µM; 2 days; read-out: Toxicity (IC50) L1210
Method in brief: as §2

E. faecalis VRE 6 = experiment: MIC, broth microdilution, vancomycin-resistant E. faecalis VRE 6 (VanA); type: cell-based, Enterococcus faecalis; settings: for MIC: Enterococcus faecalis VRE 6 (vancomycin-resistant), read-out: MIC; for MIC-fold improvement vs. vancomycin: VRE 6, ratio of MIC of vancomycin and MIC of analogue
Method in brief: as §1

E. faecalis VRE 53 = experiment: MIC, broth microdilution, vancomycin-resistant E. faecalis VRE 53 (VanA); type: cell-based, Enterococcus faecalis; settings: for MIC: Enterococcus faecalis VRE 53 (vancomycin-resistant), read-out: MIC; for MIC-fold improvement vs. vancomycin: VRE 53, ratio of MIC of vancomycin and MIC of analogue
Method in brief: as §1

Compound | MIC (S. aureus VRSA) | MIC-fold improvement vs. vancomycin (S. aureus VRSA) | MIC (E. faecalis VRE 37) | MIC-fold improvement vs. vancomycin (E. faecalis VRE 37) | IC50 [1] | MIC (E. faecalis VRE 29) | MIC-fold improvement vs. vancomycin (E. faecalis VRE 29) | MIC [2] | MIC-fold improvement vs. vancomycin [2] | MIC-fold improvement vs. vancomycin (MRSA KS2) | MIC (MRSA KS2) | IC50 [3] | MIC (S. aureus VISA/HIP5827) | MIC-fold improvement vs. vancomycin (S. aureus VISA/HIP5827) | MIC-fold improvement vs. vancomycin (MRSA KS89) | MIC (MRSA KS89) | MIC-fold improvement vs. vancomycin (MRSA KS6) | MIC (MRSA KS6) | MIC-fold improvement vs. vancomycin (MRSA KS1) | MIC (MRSA KS1) | further results
CNC(CC(C)C)C(=O)NC1C(=O)NC(CC(N)=O)C(=O)NC2C(=O)NC3C(=O)NC(C(=O)NC(C(=O)NCC(=O)Nc4ccc(-c5ccc(OC)cc5)cc4)c4cc(O)cc(O)c4-c4cc3ccc4O)C(O)c3ccc(c(Cl)c3)Oc3cc2cc(c3OC2OC(CO)C(O)C(O)C2OC2CC(C)(N)C(O)C(C)O2)Oc2ccc(cc2Cl)C1O (centres unmarked) [Vanc-57] | 1.56 µM (≈ 2.63 µg/mL) | 64 | 1.56 µM (≈ 2.63 µg/mL) | 256 | 3.7 ± 0.2 µM | 3.13 µM (≈ 5.28 µg/mL) | 128 | 0.20 µM (≈ 0.338 µg/mL) | 4 | 4 | 0.20 µM (≈ 0.338 µg/mL) | 41 ± 12 µM | 0.39 µM (≈ 0.658 µg/mL) | 16 | 2 | 0.39 µM (≈ 0.658 µg/mL) | 0.5 | 1.56 µM (≈ 2.63 µg/mL) | 8 | 0.10 µM (≈ 0.169 µg/mL) | MIC (E. faecalis VSE 1): ≤0.05 µM; MIC-fold improvement vs. vancomycin (E. faecalis VSE 1): ≥32; IC50 [4]: 17 µM; IC50 [5]: 6.3 ± 0.2 µM; MIC (E. faecalis VRE 6): 1.56 µM (≈ 2.63 µg/mL); MIC-fold improvement vs. vancomycin (E. faecalis VRE 6): 128; MIC (E. faecalis VRE 53): 12.5 µM (≈ 21.1 µg/mL); MIC-fold improvement vs. vancomycin (E. faecalis VRE 53): 32
CN[C@H](CC(C)C)C(=O)N[C@H]1C(=O)N[C@@H](CC(N)=O)C(=O)N[C@H]2C(=O)N[C@H]3C(=O)N[C@H](C(=O)N[C@H](C(=O)NCCNC(=O)/C=C/c4ccc(NS(=O)(=O)c5ccccc5)cc4)c4cc(O)cc(O)c4-c4cc3ccc4O)[C@H](O)c3ccc(c(Cl)c3)Oc3cc2cc(c3O[C@@H]2O[C@H](CO)[C@@H](O)[C@H](O)[C@H]2O[C@H]2C[C@](C)(N)[C@H](O)[C@H](C)O2)Oc2ccc(cc2Cl)[C@H]1O [Vanc-54] | 0.39 µM (≈ 0.693 µg/mL) | 256 | 25 µM (≈ 44.4 µg/mL) | 16 | ≥ 250 µM | 25 µM (≈ 44.4 µg/mL) | 16 | 0.39 µM (≈ 0.693 µg/mL) | 2 | 2 | 0.39 µM (≈ 0.693 µg/mL) | 54 ± 29 µM | 0.78 µM (≈ 1.39 µg/mL) | 8 | 2 | 0.39 µM (≈ 0.693 µg/mL) | 2 | 0.39 µM (≈ 0.693 µg/mL) | 2 | 0.39 µM (≈ 0.693 µg/mL) | MIC (E. faecalis VSE 1): 0.78 µM (≈ 1.39 µg/mL); MIC-fold improvement vs. vancomycin (E. faecalis VSE 1): 2; IC50 [4]: 185 µM; IC50 [5]: > 250 µM; MIC (E. faecalis VRE 6): 12.5 µM (≈ 22.2 µg/mL); MIC-fold improvement vs. vancomycin (E. faecalis VRE 6): 16; MIC (E. faecalis VRE 53): 25 µM (≈ 44.4 µg/mL); MIC-fold improvement vs. vancomycin (E. faecalis VRE 53): 16
